Assay results taken from the supplement of paper PMC10307832.

Legend:
Assay in all cases: relative viability (nuclei count vs DMSO), 5 days (fraction); higher = more cells survive
QS11 + Tozasertib = compound: C1CC2=C(C1)C=C(C=C2)OC3=NC(=C4C(=N3)N(C=N4)CC5=CC=C(C=C5)C6=CC=CC=C6)N[C@@H](CC7=CC=CC=C7)CO [QS11] + Cc1cc(Nc2cc(N3CCN(C)CC3)nc(Sc3ccc(NC(=O)C4CC4)cc3)n2)n[nH]1 [Tozasertib] (partner 0.1 µM)
Method in brief: (§1)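 One day after seeding in 1536-well plates, lung cancer cell lines were dosed by pin tool. Dosing was either single-drug or a fixed anchor-drug dose plus five library-drug doses (not always all listed) in √10 steps. After 5 days, nuclei were stained in one fix-and-stain step and counted on 4× images, and relative viability is the nuclei count of treated wells over that of vehicle wells, given as the median of duplicate plates.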

AZ628 + Trametinib = compound: CC1=C(C=C(C=C1)NC(=O)C2=CC(=CC=C2)C(C)(C)C#N)NC3=CC4=C(C=C3)N=CN(C4=O)C [AZ628] + CC(=O)Nc1cccc(-n2c(=O)n(C3CC3)c(=O)c3c(Nc4ccc(I)cc4F)n(C)c(=O)c(C)c32)c1 [Trametinib] (partner 0.02 µM)
Method in brief: as §1

AZ628 + Pemetrexed = compound: CC1=C(C=C(C=C1)NC(=O)C2=CC(=CC=C2)C(C)(C)C#N)NC3=CC4=C(C=C3)N=CN(C4=O)C [AZ628] + Nc1nc2[nH]cc(CCc3ccc(C(=O)N[C@@H](CCC(=O)O)C(=O)O)cc3)c2c(=O)[nH]1 [Pemetrexed] (partner 0.2 µM)
Method in brief: as §1

Darinaparsin + Dasatinib = compound: C[As](C)SC[C@H](NC(=O)CC[C@H](N)C(=O)O)C(=O)NCC(=O)O [Darinaparsin] + Cc1nc(Nc2ncc(C(=O)Nc3c(C)cccc3Cl)s2)cc(N2CCN(CCO)CC2)n1 [Dasatinib] (partner 0.075 µM)
Method in brief: as §1

Cell Line | relative viability (QS11 + Tozasertib; first compound 0.08 µM) | relative viability (QS11 + Tozasertib; first compound 0.253 µM) | relative viability (QS11 + Tozasertib; first compound 0.8 µM) | relative viability (QS11 + Tozasertib; first compound 2.53 µM) | relative viability (QS11 + Tozasertib; first compound 8 µM) | relative viability (AZ628 + Trametinib; first compound 0.08 µM) | relative viability (AZ628 + Trametinib; first compound 0.253 µM) | relative viability (AZ628 + Trametinib; first compound 0.8 µM) | relative viability (AZ628 + Trametinib; first compound 2.53 µM) | relative viability (AZ628 + Trametinib; first compound 8 µM) | relative viability (AZ628 + Pemetrexed; first compound 0.08 µM) | relative viability (AZ628 + Pemetrexed; first compound 0.253 µM) | relative viability (AZ628 + Pemetrexed; first compound 0.8 µM) | relative viability (AZ628 + Pemetrexed; first compound 2.53 µM) | relative viability (AZ628 + Pemetrexed; first compound 8 µM) | relative viability (Darinaparsin + Dasatinib; first compound 0.08 µM) | relative viability (Darinaparsin + Dasatinib; first compound 0.8 µM) | relative viability (Darinaparsin + Dasatinib; first compound 2.53 µM) | relative viability (Darinaparsin + Dasatinib; first compound 8 µM)
ChaGo-K-1 | 0.232 | 0.256 | 0.238 | 0.216 | 0.23 | 0.911 | 0.879 | 0.881 | 0.873 | 0.839 | 0.27 | 0.277 | 0.262 | 0.298 | 0.243 | 0.525 | 0.611 | 0.72 | 0.649
201T | 0.956 | 1.03 | 0.694 | 0.892 | 0.584 | 0.709 | 0.693 | 0.71 | 0.667 | 0.561 | 0.347 | 0.345 | 0.308 | 0.339 | 0.352 | 0.571 | 0.533 | 0.66 | 0.627
HCC-44 | 1 | 0.981 | 0.694 | 0.792 | 0.458 | 0.909 | 0.837 | 0.566 | 0.804 | 0.519 | 0.629 | 0.682 | 0.643 | 0.706 | 0.679 | – | – | – | –
EMC-BAC-2 | 0.297 | 0.292 | 0.279 | 0.274 | 0.238 | 0.588 | 0.442 | 0.416 | 0.365 | 0.43 | 0.481 | 0.494 | 0.476 | 0.516 | 0.589 | 0.34 | 0.368 | 0.302 | 0.35
NCI-H2405 | 0.752 | 0.699 | 0.725 | 0.758 | 0.899 | 0.387 | 0.319 | 0.277 | 0.286 | 0.313 | 0.839 | 0.698 | 0.673 | 0.632 | 0.624 | 0.203 | 0.232 | 0.223 | 0.221
NCI-H2342 | 0.479 | 0.46 | 0.62 | 0.474 | 0.436 | 0.839 | 0.878 | 0.907 | 0.752 | 0.978 | 0.89 | 0.683 | 0.761 | 0.702 | 0.793 | 0.358 | 0.302 | 0.296 | 0.312
HOP-62 | 0.363 | 0.442 | 0.31 | 0.281 | 0.302 | 0.197 | 0.155 | 0.15 | 0.15 | 0.188 | 0.311 | 0.343 | 0.305 | 0.409 | 0.271 | 0.708 | 0.786 | 0.434 | 0.693
NCI-H1651 | 0.819 | 0.698 | 0.678 | 0.548 | 0.507 | 0.848 | 0.83 | 0.858 | 0.826 | 0.77 | 0.632 | 0.522 | 0.563 | 0.711 | 0.554 | 0.51 | 0.476 | 0.365 | 0.416
NCI-H2085 | 0.803 | 0.77 | 0.479 | 0.531 | 0.467 | 0.502 | 0.479 | 0.628 | 0.601 | 0.481 | 0.951 | 0.971 | 0.87 | 0.865 | 0.772 | 0.238 | 0.25 | 0.235 | 0.223
NCI-H2023 | 0.381 | 0.38 | 0.276 | 0.222 | 0.219 | 0.402 | 0.338 | 0.203 | 0.237 | 0.183 | 0.272 | 0.208 | 0.193 | 0.201 | 0.125 | 0.724 | 0.656 | 0.352 | 0.729
UMC-11 | 0.174 | 0.27 | 0.182 | 0.181 | 0.184 | 0.713 | 0.764 | 0.734 | 0.691 | 0.693 | 0.818 | 0.799 | 0.79 | 0.763 | 0.814 | 0.711 | 0.473 | 0.401 | 0.578
NCI-H23 | 0.277 | 0.413 | 0.273 | 0.253 | 0.266 | 0.178 | 0.29 | 0.211 | 0.191 | 0.23 | 0.616 | 0.464 | 0.419 | 0.45 | 0.396 | 0.909 | 0.836 | 0.714 | 0.843
NCI-H1355 | 0.569 | 0.564 | 0.425 | 0.452 | 0.413 | 0.384 | 0.303 | 0.28 | 0.292 | 0.286 | 1.06 | 1.02 | 0.843 | 0.996 | 0.716 | 0.717 | 0.69 | 0.596 | 0.689
NCI-H1734 | 0.25 | 0.273 | 0.28 | 0.246 | 0.316 | 0.42 | 0.386 | 0.313 | 0.344 | 0.301 | 0.375 | 0.423 | 0.397 | 0.391 | 0.34 | 0.461 | 0.441 | 0.44 | 0.49
NCI-H1648 | – | 0.577 | – | 0.396 | 0.642 | 0.404 | 0.333 | 0.288 | 0.337 | 0.284 | 1.06 | 0.702 | 0.614 | 0.549 | 0.642 | – | – | – | –
NCI-H1563 | – | – | – | – | – | – | – | – | – | – | 0.773 | 0.827 | 0.86 | 0.756 | 0.764 | 0.379 | 0.442 | 0.5 | 0.479
ABC-1 | 0.191 | 0.157 | 0.174 | 0.168 | 0.183 | – | – | – | – | – | – | – | – | – | – | 0.56 | 0.451 | 0.572 | 0.715
NCI-H1623 | 0.449 | 0.546 | 0.427 | 0.466 | 0.434 | – | – | – | – | – | – | – | – | – | – | 0.574 | 0.548 | 0.518 | 0.553
NCI-H727 | 0.58 | 0.602 | 0.539 | 0.647 | 0.511 | 0.338 | – | – | 0.385 | 0.357 | – | – | – | – | – | 0.401 | 0.356 | 0.414 | 0.416
